pIC50: −log10 of the molar value.

Broadly, the pIC50 is the IC50 on a negative log10 scale, so that one unit is a factor of ten. Lower therefore signals a large IC50.

This test has as its target T1, CRTH2 (Homo sapiens, UniProt Q9Y5Y4).
T1 sequence (Q9Y5Y4 1-395): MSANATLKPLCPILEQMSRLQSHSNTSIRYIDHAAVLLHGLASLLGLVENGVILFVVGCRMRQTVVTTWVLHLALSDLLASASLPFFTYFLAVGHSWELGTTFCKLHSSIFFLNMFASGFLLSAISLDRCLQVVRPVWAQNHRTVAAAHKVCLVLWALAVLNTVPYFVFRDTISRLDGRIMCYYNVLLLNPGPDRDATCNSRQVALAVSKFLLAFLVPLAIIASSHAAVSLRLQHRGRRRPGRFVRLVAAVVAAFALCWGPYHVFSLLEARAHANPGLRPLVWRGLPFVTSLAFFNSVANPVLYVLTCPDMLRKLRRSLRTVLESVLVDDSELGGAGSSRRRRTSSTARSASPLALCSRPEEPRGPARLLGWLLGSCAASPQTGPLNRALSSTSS
Kind of test: Radioligand binding Scintillation Proximity Assay ([3H]PGD2, hCRTH2-CHO cell membranes). Also noted: host or cells: CHO cells. As to conditions: 1.5 nM [3H]PGD2, hCRTH2-CHO cell membranes, SPA. As to the method:
Adherent CHO cells expressing hCRTH2 (Euroscreen, Belgium) were cultured in 225 cm^2 cell culture flasks (Corning, USA) in 30 ml of medium. After two rinses of phosphate buffered saline (PBS), cells were harvested in 10 ml of PBS containing 1 mM EDTA, centrifuged at 500×g for 5 min at 4° C. and frozen at −80° C. The pellet was re-suspended in 50 mM Tris-HCl, pH 7.4, 2 mM EDTA, 250 mM Sucrose, containing protease inhibitor cocktail tablets, (Complete EDTA-free, Roche, Germany) and incubated 30 min at 4° C. Cells were disrupted by nitrogen cavitation (Parr Instruments, USA) at 4° C. (800 p.s.i. for 30 min), and centrifuged at 500×g for 10 min at 4° C. Pellet containing nuclei and cellular debris was discarded and supernatant was centrifuged 60 min at 4° C. at 45000×g. Membrane pellet was re-suspended in storage buffer (10 mM HEPES/KOH pH 7.4, 1 mM EDTA, 250 mM sucrose, protease inhibitor cocktail tablets) using Dounce homogenization and frozen in liquid nitrogen, and stored at −80° C.
The inhibitory activity can be investigated by a radioligand binding Scintillation Proximity Assay (SPA) (Sawyer et al., Br. J. Pharmocol 2002, 137, 1163-72). The SPA radioligand binding assay was performed at room temperature in binding buffer (10 mM HEPES/KOH pH 7.4, 10 mM MnCl2, with protease inhibitor cocktail tablets), containing 1.5 nM [^3H]PGD2 (Perkin Elmer), 10-50 μg/ml of hCRTH2-CHO cell membrane protein and 2 mg/ml of Wheat-germ agglutinin Sintillation Proximity Assay beads (RPNQ0001, GE-Healthcare) in a final volume of 100 μl in 96 well plates (Corning, USA). Non-specific binding was determined in the presence of 10 μM PGD2 (Cayman, USA). Competing Compounds of Formula (I) were diluted in dimethylsulphoxide so that the total volume of dimethylsulfoxide was kept constant at 1% dimethylsulphoxide (Me2SO). Serial dilutions of 100 μM to 100 pM were prepared and 10 μl each of the compounds of Formula (I) stock solutions were added to the binding assay reagents and incubated for 90 min with agitation at room temperature. Binding activity was determined by using a 1450 Micro-beta scintillation counter (Wallac, UK).
A general note: SPA uses beads or plates that emit light when radiolabelled molecules are held near them.
The molecule `CCCS(=O)(=O)c1cccc(C#Cc2cc(-c3c(C)nn(C)c3C)ccc2OCC(=O)O)c1` [Example 136, [2-{[3-(Propylsulfonyl)phenyl]ethynyl}-4-(1,3,5-trimethyl-1H-pyrazol-4-yl)phenoxy]acetic acid] showed a pIC50 of 6.44. The figure for `CCCCN(C)S(=O)(=O)c1ccc(C)c(C#Cc2cc(Cl)ccc2OCC(=O)O)c1` [Example 111, {2-[(5-{[butyl(methyl)amino]sulfonyl}-2-methylphenyl)ethynyl]-4-chlorophenoxy}acetic acid] is 8.22; for `COCc1ccc(F)c(C#Cc2cc(Cl)ccc2OCC(=O)O)c1` [Example 30, (4-chloro-2-{[2-fluoro-5-(methoxymethyl)phenyl]ethynyl}phenoxy)acetic acid] it is 7.07.

Regarding `O=C(O)COc1ccc(Cl)cc1C#Cc1ccc(Cl)s1` [Example 10, {4-chloro-2-[(5-chloro-2-thienyl)ethynyl]phenoxy}acetic acid], the pIC50 is 6.57. `CS(=O)(=O)c1ccc(Cl)c(C#Cc2cc(C#N)ccc2OCC(=O)O)c1` [Example 61, (2-{[2-chloro-5-(methylsulfonyl)phenyl]ethynyl}-4-cyanophenoxy)acetic acid] showed a pIC50 of 8.10. With `CS(=O)(=O)Cc1cccc(C#Cc2cc(Cl)ccc2OCC(=O)O)c1` [Example 98, [4-chloro-2-({3-[(methylsulfonyl)methyl]phenyl}ethynyl)phenoxy]acetic acid] the figure was 7.22; with `CS(=O)(=O)c1ccc(N2CCCCC2)c(C#Cc2cc(Cl)ccc2OCC(=O)O)c1` [Example 57, (4-chloro-2-{[5-(methylsulfonyl)-2-piperidin-1-ylphenyl]ethynyl}phenoxy)acetic acid], 6.55.

`CS(=O)(=O)c1cc(C#Cc2cc(Cl)ccc2OCC(=O)O)ccc1-c1ccccc1Cl` [Example 146, (4-chloro-2-{[2′-chloro-2-(methylsulfonyl)biphenyl-4-yl]ethynyl}phenoxy)acetic acid] showed a pIC50 of 8.40. With `O=C(O)COc1ccc(Cl)cc1C#Cc1cncc(S(=O)(=O)N2CCOCC2)c1` [Example 79, (4-chloro-2-{[5-(morpholin-4-ylsulfonyl)pyridin-3-yl]ethynyl}phenoxy)acetic acid] the figure was 7.28; with `Cc1ccc(S(=O)(=O)CCO)cc1C#Cc1cc(C#N)ccc1OCC(=O)O` [Example 64, [4-cyano-2-({5-[(2-hydroxyethyl)sulfonyl]-2-methylphenyl}ethynyl)phenoxy]acetic acid], 6.87. The figure for `O=C(O)COc1ccc(Cl)cc1C#Cc1cccnc1` [Example 14, [4-chloro-2-(pyridin-3-ylethynyl)phenoxy]acetic acid] is 6.84; for `O=C(O)COc1ccc(Cl)cc1C#Cc1cncc(S(=O)(=O)N2CC(F)(F)C2)c1` [Example 78, [4-chloro-2-({5-[(3,3-difluoroazetidin-1-yl)sulfonyl]pyridin-3-yl}ethynyl)phenoxy]acetic acid] it is 7.40. With `O=C(O)COc1ccc(Cl)cc1C#Cc1ccc(Cl)cc1` [Example 2, {4-chloro-2-[(4-chlorophenyl)ethynyl]phenoxy}acetic acid] the figure was 7.04; with `Cc1ccc(S(=O)(=O)C(C)C)cc1C#Cc1cc(C#N)ccc1OCC(=O)O` [Example 68, (4-cyano-2-{[5-(isopropylsulfonyl)-2-methylphenyl]ethynyl}phenoxy)acetic acid], 7.92; with `Cc1ccc(S(=O)(=O)c2ccccc2)cc1C#Cc1cc(C#N)ccc1OCC(=O)O` [Example 94, (4-cyano-2-{[2-methyl-5-(phenylsulfonyl)phenyl]ethynyl}phenoxy)acetic acid], 7.96. `CN(c1cncc(C#Cc2cc(C#N)ccc2OCC(=O)O)c1)S(C)(=O)=O` [Example 72, [4-cyano-2-({5-[methyl(methylsulfonyl)amino]pyridin-3-yl}ethynyl)phenoxy]acetic acid]: the pIC50 was 6.44. In turn, `CN(C)C(=O)c1cccc(C#Cc2cc(Cl)ccc2OCC(=O)O)c1` [Example 127, [4-chloro-2-({3-[(dimethylamino)carbonyl]phenyl}ethynyl)phenoxy]acetic acid] gave a pIC50 of 7.17. Turning to `O=C(O)COc1cc(F)ccc1C#Cc1ccccc1Cl` [Example 37, {2-[(2-chlorophenyl)ethynyl]-5-fluorophenoxy}acetic acid], the pIC50 was 5.23. Against the preceding molecule, the pIC50 is 1.94 log units lower. `O=C(O)COc1ccc(Cl)cc1C#Cc1cccc(CO)c1F` [Example 28, (4-chloro-2-{[2-fluoro-3-(hydroxymethyl)phenyl]ethynyl}phenoxy)acetic acid]: the pIC50 is 7.32. Turning to `CNS(=O)(=O)c1ccc(C)c(C#Cc2cc(Cl)ccc2OCC(=O)O)c1` [Example 84, [4-chloro-2-({2-methyl-5-[(methylamino)sulfonyl]phenyl}ethynyl)phenoxy]acetic acid], the negative-log IC50 (pIC50) was 7.89.

Molecule `CCCN(C)S(=O)(=O)c1ccc(C)c(C#Cc2cc(Cl)ccc2OCC(=O)O)c1` [Example 115, {4-chloro-2-[(2-methyl-5-{[methyl(propyl)amino]sulfonyl}phenyl)ethynyl]phenoxy}acetic acid] had a pIC50 of 8.30. The figure for `Cn1ccnc1C#Cc1cc(Cl)ccc1OCC(=O)O` [Example 11, {4-chloro-2-[(1-methyl-1H-imidazol-2-yl)ethynyl]phenoxy}acetic acid] is 5.75; for `CCCN(CCC)S(=O)(=O)c1ccc(C)c(C#Cc2cc(Cl)ccc2OCC(=O)O)c1` [Example 116, [4-chloro-2-({5-[(dipropylamino)sulfonyl]-2-methylphenyl}ethynyl)phenoxy]acetic acid] it is 8.10.

The molecule `CS(=O)(=O)c1cncc(C#Cc2cc(Cl)ccc2OCC(=O)O)c1` [Example 36, (4-chloro-2-{[5-(methylsulfonyl)pyridin-3-yl]ethynyl}phenoxy)acetic acid] showed a pIC50 of 7.12.

`CN(c1cncc(C#Cc2cc(Cl)ccc2OCC(=O)O)c1)S(C)(=O)=O` [Example 47, [4-chloro-2-({5-[methyl(methylsulfonyl)amino]pyridin-3-yl}ethynyl)phenoxy]acetic acid] showed a pIC50 of 6.47.

Regarding `Cc1ccc(S(=O)(=O)C(C)C)cc1C#Cc1cc(Cl)ccc1OCC(=O)O` [Example 51, (4-chloro-2-{[5-(isopropylsulfonyl)-2-methylphenyl]ethynyl}phenoxy)acetic acid], the pIC50 is 8.10. The figure for `CS(=O)(=O)c1ccc(O)c(C#Cc2cc(Cl)ccc2OCC(=O)O)c1` [Example 60, (4-chloro-2-{[2-hydroxy-5-(methylsulfonyl)phenyl]ethynyl}phenoxy)acetic acid] is 6.53. The molecule `CCN(CC)C(=O)c1ccc(C#Cc2cc(Cl)ccc2OCC(=O)O)cc1S(=O)(=O)C(C)C` [Example 165, (4-chloro-2-{[4-[(diethylamino)carbonyl]-3-(isopropylsulfonyl)phenyl]ethynyl}phenoxy)acetic acid] had a pIC50 of 7.28.

Take `N#Cc1ccc(F)c(C#Cc2cc(Cl)ccc2OCC(=O)O)c1` [Example 21, {4-chloro-2-[(5-cyano-2-fluorophenyl)ethynyl]phenoxy}acetic acid]: the pIC50 is 7.34.

With `O=C(O)COc1ccc(Cl)cc1C#Cc1ccccc1F` [Example 5, {4-chloro-2-[(2-fluorophenyl)ethynyl]phenoxy}acetic acid], the pIC50 is 7.25.

The record behind these values is US8273769B2, “Phenoxy acetic acid derivatives” (Merck Serono SA, priority 2009, dated 2012).
